Data reported in publication PMC5606850, “Acidic C-terminal domains autoregulate the RNA chaperone Hfq” (eLife, 2017).
Entries after “also recorded” stand apart in the source; their conditions may differ.

Tested on: linear pUC19 DNA
Assay: Hfq binding to linear pUC19 DNA, agarose gel mobility shift
Conditions: 0–3.3 μM Hfq hexamer, 6 nM linear pUC19, 25 °C, 1.5% agarose
Description: Figure 5. CTD and RNAs inhibit DNA binding to Hfq by obstructing the basic rim patch. (A, B) Agarose gel electrophoretic mobility shift assays of 0–3.3 μM hexamer Hfq102, Hfq102-R16A, Hfq65 or Hfq65-R16A binding to 6 nM linear pUC19 DNA (2635 nts) at 25°C, stained with SYBR Gold. Hfq65 forms large aggregates that fail to enter the gel (Figure 5—figure supplement 1). (C, D) Line densitometry of DNA migration in (A, B). Free pUC19 (no Hfq) is shown in light grey. Samples with increasing Hfq concentration are shown in darker shades of grey. (E, F) RNA competition. Complexes of 0.5 μM Hfq102 hexamer and 6 nM linear pUC19 (black) were challenged by 0–2 μM RNA or DNA competitor (darker shades of red). pUC19 control in the absence of Hfq is shown in light grey. Icons indicate the binding surface for each competitor. See Figure 5—figure supplement 2 for gel images. Figure 5—figure supplement 1. Hfq CTD prevents aggregation with DNA. (A) Protease assay. 3.5 µM Hfq hexamer incubated with 6 nM linear (L) plus relaxed circular (N) pUC19 DNA at 25°C, for 30 min, in 50 mM Tris-HCl pH 7.5 and 10 mM CaCl2. The samples were divided in two. One set was diluted with a small amount of buffer and incubated at 25°C for an additional 2 hr. The second set was brought to 0.5% SDS, and 0.4 U Proteinase K (NEB) was added, followed by incubation at 50°C for an additional 2 hr. Loading dye was added to all samples just before they were loaded onto a native gel. […] Digestion of Hfq65 and Hfq65-R16A with Proteinase K liberates DNA from Hfq•DNA aggregates, allowing it to be detected (lanes 9 and 10). (B) Pelleting assay. 3.5 µM Hfq hexamer was incubated with 15 nM 1000 bp DNA (Thermo Scientific) at 25°C for 30 min in 50 mM Tris-HCl pH 7.5. Hfq·DNA aggregates were pelleted by centrifugation at 20,000 × g, 4°C, for 30 min. Supernatants were removed and split in two. The pellet and half the supernatant were brought to 1 M NaCl, and the Hfq·DNA aggregates were further disrupted by phenol-chloroform extraction, before all of the samples were loaded on an agarose gel. […] The small proportion of Hfq65·DNA complexes remaining in the supernatant were only detected in the gel after treatment with salt. […] Competition of Hfq-DNA interactions by small RNAs. EMSAs of 0.5 μM Hfq102 hexamer binding to 6 nM linearized pUC19 plasmid, that were competed with 0.1–2 μM RNAs or DNA at 30°C. Gels were run in a cold room. […]
Samples (10 µL) containing linear pUC19 (0.145 nmol bp), 0–3.333 µM Hfq hexamer, in 40 mM Tris-HCl pH 7.5, 0.14 mM EDTA, 35 mM NH4Cl, 3.7% (v/v) glycerol, 0.05% (w/v) bromophenol blue were incubated at 25°C for 30 min. […] The fluorescence intensity was measured on a line from the bottom edge of the well through the middle of the lane to visualize the migration of pUC19. […]

Substance | binding to linear pUC19 DNA (gel mobility) | binding to linear pUC19 DNA (gel mobility) (listed as R16A)
Hfq65-R16A | rescued the formation of insoluble aggregates; also recorded: complexes migrated more slowly than those formed by similar concentrations of Hfq102 | lowered the maximum gel retardation and increased the intensity of the ‘smear’
Hfq65: truncated E. coli Hfq variant lacking the CTD | At higher protein concentrations, the DNA formed aggregates that were too large to enter the gel | –
Hfq102: full-length E. coli Hfq | The mobility of the DNA-Hfq complexes decreased with added Hfq102 | –
